Each block holds one compound with its values, some of them ahead of it.
Experiments:
[1] = target: T1, OsALMT4 (Oryza sativa, UniProt Q0JPI1); test: malate efflux from intact OX5 seedlings, concentration series; settings: read-out: Ki (half maximum inhibition)
T1 construct: gene Os01g0221600; full-length, constitutively over-expressed in transgenic rice (homozygous line OX5)
T1 sequence (Q0JPI1 1-524): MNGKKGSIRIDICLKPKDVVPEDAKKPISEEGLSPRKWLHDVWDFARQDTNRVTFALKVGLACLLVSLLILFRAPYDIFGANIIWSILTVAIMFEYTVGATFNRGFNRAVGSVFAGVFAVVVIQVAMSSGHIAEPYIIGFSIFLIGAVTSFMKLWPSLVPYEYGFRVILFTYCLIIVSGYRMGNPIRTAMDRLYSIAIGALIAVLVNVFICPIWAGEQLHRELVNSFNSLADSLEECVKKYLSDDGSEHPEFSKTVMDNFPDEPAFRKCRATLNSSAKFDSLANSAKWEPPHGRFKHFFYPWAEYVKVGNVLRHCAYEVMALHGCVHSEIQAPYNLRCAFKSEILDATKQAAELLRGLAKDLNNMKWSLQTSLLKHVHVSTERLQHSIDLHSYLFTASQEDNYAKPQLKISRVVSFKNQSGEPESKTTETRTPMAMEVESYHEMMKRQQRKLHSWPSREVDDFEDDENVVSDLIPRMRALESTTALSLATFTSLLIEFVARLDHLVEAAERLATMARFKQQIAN

[2] = target: T1, OsALMT4; test: malate efflux from intact OX5 and OX5_null seedlings; settings: pH 5.6; transported anion, stereo not told
[3] = target: T1, OsALMT4; test: malate efflux from intact OX5 seedlings; settings: read-out: malate efflux, % of control at 100 μM

- IC50 [1]: 25 µM
SMILES: O=C(O)c1ccccc1O [SA, salicylic acid]

SMILES: O=C(O)C[C@H](O)C(=O)O [malate]
- malate efflux from intact OX5 and OX5_null seedlings [2]: SA treatment effectively inhibited malate efflux via OsALMT4 in the transgenic OX lines

- remaining activity at 100 µM [3]: < 20%
SMILES: O=C(O)c1cccnc1Nc1cccc(C(F)(F)F)c1 [niflumate]
